Results from patent US20130012466A1 (priority 2006, published 2013).
“Also recorded” adds a separate entry of the source. Where two headings read alike, the source gives them in different places.

Legend:
ADR-RES = assay: Cytotoxicity assay (cell titer-glo and calcein AM), ADR-RES
NCI-H460 = assay: Cytotoxicity assay (cell titer-glo and calcein AM), NCI-H460
A549 cells [1] = assay: Drug combination study with paclitaxel (Chou-Talalay combination index); conditions: for synergy (paclitaxel): combination index class, combination with paclitaxel, Chou-Talalay method; for plus paclitaxel, mean CI / plus paclitaxel, median CI: combination index, paclitaxel held at IC10, A549 cells; for interaction with paclitaxel/taxol: drug combination, A549 cells, Chou-Talalay;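 on all read-outs here: combination indexes averaged only over points where fraction affected exceeded 0.2, with each synergy experiment repeated at least three times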
Description: (§1) Ten thousand A549 cells per well were plated in triplicate in 96 well black tissue culture treated plates. Cells were incubated for one hour at 37° C. to allow cells to attach.
(§2) All synergy experiment results were replicated at least three times and the overall effects analyzed by averaging all combination indexes generated if the fraction affected was greater than 0.2.

[2] = tested on: mouse mammary normal epithelial control cell line; assay: Cytotoxicity assay, normal control cell line
MCF7 = assay: Cytotoxicity assay (cell titer-glo and calcein AM), MCF7
[3] = tested on: nine human cancer cell lines and one normal mouse control cell line; assay: Cytotoxicity screen across the whole cell line panel; assay type: cell-based
A549 cells [4] = assay: Drug combination study with colchicine (Chou-Talalay combination index); conditions: for plus colchicine, mean CI / plus colchicine, median CI: combination index, colchicine held at IC10, A549 cells; for interaction with colchicine: drug combination, A549 cells, Chou-Talalay
Description: as §1, §2

Hep3B = assay: Cytotoxicity assay (cell titer-glo and calcein AM), Hep3B
tubulin = assay: In vitro tubulin polymerization assay (fluorescence-based); assay type: biochemical; set-up: key to tubulin polymeriz.: ‘D’ designates destabilizer; ‘S’ designates stabilizer; conditions: for effect on tubulin polymerization / microtubules: tested in duplicate on at least two days
Description: In vitro tubulin polymerization assays were performed using a fluorescence-based assay (Cytoskeleton, Inc., Denver, Colo.). […] Aliquots (5 μL) of each compound or control were added to a 96-well black half area plate (Corning Costar, Inc.) pre-warmed to 37° C. Cold tubulin reaction mix (50 μL 1× Buffer—80 mM piperazine-N,N′-bis[2-ethanesulfonic acid]sequisodium salt; 2.0 mM magnesium chloride; 0.5 mM ethylene glycol-bis[β-amino-ethyl ether) N,N,N′,N′-tetra-acetic acid, pH 6.9, 10 μM fluorescent reporter; 20% tubulin glycerol buffer—80 mM piperazine-N,N′-bis[2-ethanesulfonic acid] sequisodium salt; 2.0 mM magnesium chloride; 0.5 mM ethylene glycol-bis(β-amino-ethyl ether) N,N,N′,N′-tetra-acetic acid, 60% v/v glycerol, pH 6.9, 1 mM GTP; and 2 mg mL^−1 tubulin stock) was added to each of the compounds. […] Polymerization curves were generated in Excel after background correction and the effects of test compounds were compared to controls.
Library members that accelerated the rate of tubulin polymerization were deemed microtubule stabilizers, whereas compounds that decelerated the rate of tubulin polymerization were deemed microtubule de-stabilizers.

A549 = assay: Cytotoxicity assay (cell titer-glo and calcein AM), A549
SF-268 = assay: Cytotoxicity assay (cell titer-glo and calcein AM), SF-268
SK-OV-3 = assay: Cytotoxicity assay (cell titer-glo and calcein AM), SK-OV-3
Du145 = assay: Cytotoxicity assay (cell titer-glo and calcein AM), Du145
HCT-116 = assay: Cytotoxicity assay (cell titer-glo and calcein AM), HCT-116
[5] = read-out: Cytotoxicity IC50, NCI/ADR RES, CTG, NCI/ADR RES, CTG (cell titer-glo) readout, % error in parentheses
[6] = read-out: Cytotoxicity IC50, NCI/ADR RES, calcein, NCI/ADR RES, calcein AM readout, % error in parentheses
[7] = read-out: Cytotoxicity IC50, NCI-H460, CTG, NCI-H460, CTG (cell titer-glo) readout, % error in parentheses
[8] = read-out: Cytotoxicity IC50, NCI-H460, calcein, NCI-H460, calcein AM readout, % error in parentheses
[9] = read-out: Cytotoxicity IC50, NmuMG, CTG, CTG (cell titer-glo) readout, % error in parentheses
[10] = read-out: Cytotoxicity IC50, NmuMG, calcein, calcein AM readout, % error in parentheses
[11] = read-out: Cytotoxicity IC50, MCF7, CTG, CTG (cell titer-glo) readout, % error in parentheses
[12] = read-out: Cytotoxicity IC50, MCF7, calcein, calcein AM readout, % error in parentheses
[13] = read-out: Cytotoxicity IC50, Hep 3B, CTG, Hep 3B, CTG (cell titer-glo) readout, % error in parentheses
[14] = read-out: Cytotoxicity IC50, Hep 3B, calcein, Hep 3B, calcein AM readout, % error in parentheses
[15] = read-out: Cytotoxicity IC50, A549, CTG, A549, CTG (cell titer-glo) readout, % error in parentheses
[16] = read-out: Cytotoxicity IC50, A549, calcein, A549, calcein AM readout, % error in parentheses
[17] = read-out: Cytotoxicity IC50, SF-268, CTG, SF-268, CTG (cell titer-glo) readout, % error in parentheses
[18] = read-out: Cytotoxicity IC50, SF-268, calcein, SF-268, calcein AM readout, % error in parentheses
[19] = read-out: Cytotoxicity IC50, SK-OV-3, CTG, SK-OV-3, CTG (cell titer-glo) readout, % error in parentheses
[20] = read-out: Cytotoxicity IC50, SK-OV-3, calcein, SK-OV-3, calcein AM readout, % error in parentheses
[21] = read-out: Cytotoxicity IC50, Du145, CTG, Du145, CTG (cell titer-glo) readout, % error in parentheses
[22] = read-out: Cytotoxicity IC50, Du145, calcein, Du145, calcein AM readout, % error in parentheses
[23] = read-out: Cytotoxicity IC50, HCT-116, CTG, HCT-116, CTG (cell titer-glo) readout, % error in parentheses
[24] = read-out: Cytotoxicity IC50, HCT-116, calcein, HCT-116, calcein AM readout, % error in parentheses
[25] = Homo sapiens, NCI/ADR-RES, read-out: Cytotoxicity IC50, NCI/ADR RES, calcein
[26] = Homo sapiens, Hep3B, read-out: Cytotoxicity IC50, Hep 3B, calcein
[27] = Homo sapiens, HCT-116, read-out: Cytotoxicity IC50, HCT-116, CTG
[28] = Homo sapiens, HCT-116, read-out: Cytotoxicity IC50, HCT-116, calcein
[29] = Homo sapiens, SF-268, read-out: Cytotoxicity IC50, SF-268, calcein
[30] = Homo sapiens, SK-OV-3, read-out: Cytotoxicity IC50, SK-OV-3, CTG
[31] = Homo sapiens, SK-OV-3, read-out: Cytotoxicity IC50, SK-OV-3, calcein
[32] = Homo sapiens, DU-145, read-out: Cytotoxicity IC50, Du145, CTG
[33] = Homo sapiens, DU-145, read-out: Cytotoxicity IC50, Du145, calcein

| Molecule | IC50 (ADR-RES; [5]) [nM] | IC50 (ADR-RES; [6]) [nM] | IC50 (NCI-H460; [7]) [nM] | IC50 (NCI-H460; [8]) [nM] | IC50 [2, 9] [nM] | IC50 [2, 10] [nM] | IC50 (MCF7; [11]) [nM] | IC50 (MCF7; [12]) [nM] | IC50 (Hep3B; [13]) [nM] | IC50 (Hep3B; [14]) [nM] | tubulin polymeriz. (tubulin) | effect on tubulin polymerization / microtubules (tubulin) | IC50 (A549; [15]) [nM] | IC50 (A549; [16]) [nM] | IC50 (SF-268; [17]) [nM] | IC50 (SF-268; [18]) [nM] | IC50 (SK-OV-3; [19]) [nM] | IC50 (SK-OV-3; [20]) [nM] | IC50 (Du145; [21]) [nM] | IC50 (Du145; [22]) [nM] | further results |
| --- | --- | --- | --- | --- | --- | --- | --- | --- | --- | --- | --- | --- | --- | --- | --- | --- | --- | --- | --- | --- | --- |
| 2-deoxy-D-galactoside [Col6] | 877 | 887 | 745 | 948 | 3260 | 4170 | 665 | 2220 | 817 | 1120 | D | destabilizing; also recorded: destabilized microtubules | 782 | 942 | 632 | 691 | 388 | 381 | 892 | 958 | synergy (paclitaxel) (A549 cells [1]): + (slight synergism, Cl 0.85-0.9); plus paclitaxel, mean CI (A549 cells [1]): 0.88; plus paclitaxel, median CI (A549 cells [1]): 0.52; interaction with paclitaxel/taxol (A549 cells [1]): synergy; IC50 ([3]; all cell lines other than SK-OV-3, range printed with mixed units nM-μM, read-out: potencies (IC50) in all other cell lines): 691 to 1120 nM; plus colchicine, mean CI (A549 cells [4]): 1.30; plus colchicine, median CI (A549 cells [4]): 1.19; interaction with colchicine (A549 cells [4]): antagonism; IC50 (SK-OV-3; read-out: IC50 in SK-OV-3 cells): 381 nM |
| 2-deoxy-L-riboside [Col19] | 359 | 315 | 415 | 191 | 2910 | 2850 | 916 | 2820 | 376 | 437 | S | stabilizing; also recorded: stabilized the microtubules | 376 | 636 | 284 | 575 | 240 | 538 | 369 | 262 | synergy (paclitaxel) (A549 cells [1]): — (moderate antagonism, Cl 1.2-1.45); plus paclitaxel, mean CI (A549 cells [1]): 43.20; plus paclitaxel, median CI (A549 cells [1]): 13.40; interaction with paclitaxel/taxol (A549 cells [1]): antagonism; reduction in potency relative to (1) ([3]; versus parent colchicine): ~10 fold; plus colchicine, mean CI (A549 cells [4]): 0.54; plus colchicine, median CI (A549 cells [4]): 0.50; interaction with colchicine (A549 cells [4]): synergism |
| 6-thio-D-mannose dimer [Col58] | 3600 | 1570 | > 10000 | > 10000 | 6390 | > 10000 | 2500 | 3860 | 8620 | 5020 | – | – | 3920 | 4620 | 8010 | 9090 | 6070 | 7560 | 2090 | 2120 | IC50 (HCT-116; [23]): 1900 nM; IC50 (HCT-116; [24]): 2510 nM |
| COc1cc2c(c(OC)c1OC)-c1ccc(OC)c(=O)cc1C(NC(=O)CN(OC)C1CC(O)C(O)C(C)O1)CC2 [Col65, D-Digitoxoside] | 893 | 694 | 862 | 744 | 7750 | 3320 | 946 | 648 | 1700 | 1880 | no effect | no apparent effect | 1490 | 2300 | 800 | 665 | 634 | 1030 | 850 | 939 | IC50 (HCT-116; [23]): 918 nM; IC50 (HCT-116; [24]): 897 nM |
| CONCC(=O)N[C@H]1CCc2cc(OC)c(OC)c(OC)c2-c2ccc(OC)c(=O)cc21 [Col 8, 19-N-methoxyamino-colchicine] | – | – | – | – | – | – | – | – | – | – | – | – | – | – | – | – | – | – | – | – | IC50 (ADR-RES; Homo sapiens, NCI/ADR-RES, read-out: Cytotoxicity IC50, NCI/ADR RES, CTG): 79 nM; IC50 (ADR-RES; [25]): 65 nM; plus paclitaxel, mean CI (A549 cells [1]): 0.90; plus paclitaxel, median CI (A549 cells [1]): 0.57; interaction with paclitaxel/taxol (A549 cells [1]): synergy; plus colchicine, mean CI (A549 cells [4]): 2.98; plus colchicine, median CI (A549 cells [4]): 1.47; interaction with colchicine (A549 cells [4]): antagonism; IC50 (Hep3B; Homo sapiens, Hep3B, read-out: Cytotoxicity IC50, Hep 3B, CTG): 141 nM; IC50 (Hep3B; [26]): 284 nM; IC50 (HCT-116; [27]): 116 nM; IC50 (HCT-116; [28]): 98 nM; IC50 (SF-268; Homo sapiens, SF-268, read-out: Cytotoxicity IC50, SF-268, CTG): 116 nM; IC50 (SF-268; [29]): 191 nM; IC50 (SK-OV-3; [30]): 455 nM; IC50 (SK-OV-3; [31]): 316 nM; IC50 (Du145; [32]): 64 nM; IC50 (Du145; [33]): 84 nM |
| CC(=O)O[C@H]1C(=O)[C@@]2(C)[C@H]([C@H](OC(=O)c3ccccc3)[C@]3(O)C[C@H](OC(=O)[C@H](O)[C@@H](NC(=O)c4ccccc4)c4ccccc4)C(C)=C1C3(C)C)[C@]1(OC(C)=O)CO[C@@H]1C[C@@H]2O [paclitaxel, reference compound] | – | – | – | – | – | – | – | – | – | – | S | stabilizing; also recorded: stabilized the microtubules | – | – | – | – | – | – | – | – | IC50 (ADR-RES; [25]): 43 nM; IC50 (ADR-RES; Homo sapiens, read-out: IC50 (ADR-RES)): 43 nM; IC50 (NCI-H460; Homo sapiens, NCI-H460, read-out: IC50 (NCI-H460)): 105 nM; IC50 (Hep3B; [26]): 166 nM; IC50 (Hep3B; Homo sapiens, Hep3B, read-out: IC50 (Hep3B)): 166 nM; IC50 (HCT-116; [27]): 168 nM; IC50 (HCT-116; [28]): 275 nM; IC50 (HCT-116; Homo sapiens, HCT-116, read-out: IC50 (HCT-116)): 275 nM; IC50 (A549; Homo sapiens, A549, read-out: IC50 (A549)): 75 nM; IC50 (SF-268; [29]): 315 nM; IC50 (SF-268; Homo sapiens, SF-268, read-out: IC50 (SF-268)): 315 nM; IC50 (SK-OV-3; [30]): 42 nM; IC50 (SK-OV-3; [31]): 34 nM; IC50 (SK-OV-3; Homo sapiens, SK-OV-3, read-out: IC50 (SK-OV-3)): 34 nM; IC50 (Du145; [32]): 432 nM; IC50 (Du145; [33]): 290 nM; IC50 (Du145; Homo sapiens, DU-145, read-out: IC50 (Du145)): 290 nM |
